Reference: publication PMC6711467 (Drug delivery and translational research, 2018)
Values joined by “and” are separate entries in the source; they are usually repeats but may differ in a detail not shown here. Equal entries are not always repeated. Where two headings read alike, the source gives them in different places. Marks after values point to notes of the source that are not given here.

Experiments:
[1] = Rectal PK study: IQB4012 gel; type: in vivo, pigtailed macaques; details: for median drug concentration (min-max), Rectal fluids / median drug concentration (min-max), Rectal tissues: N = 6; for levels in blood plasma: below the LLOQ, data not shown; for concentration at 2 h / concentration at 4 h / concentration at 24 h: female, pigtailed macaque, other: rectal
[2] = in vivo
[3] = Release of drug from the gel into a liquid sink; type: in vitro ADME; details: IQB4012 gel, 1% (w/w) of each drug
[4] = Vaginal PK study: IQB4012 gel; details: for concentration at 2 h / concentration at 4 h / concentration at 24 h: female, pigtailed macaque, other: vaginal
[5] = rectal gel application, 1 or 4 ml
[6] = vaginal fluid, distal, 1.5 ml gel
[7] = vaginal fluid, proximal, 0.5 ml
[8] = vaginal fluid, proximal, 1.5 ml gel
[9] = vaginal tissue, distal, 1.5 ml gel
[10] = vaginal tissue, medial, 1.5 ml gel
[11] = vaginal tissue, proximal, 0.5 ml
[12] = vaginal application, below the LLOQ, data not shown

With `Cc1cc(C)cc(C(=O)c2c(C(C)C)c(=O)[nH]c(=O)n2CC2CC2)c1` [IQP-0528] the “median concentrations in rectal fluids” value ([1]; 1 ml gel rectally, 2 to 24 h) was 10^3–10^5 ng/ml, the “median drug concentration (min-max), Rectal fluids” value ([1]; 1 ml gel rectally, 2 h) was 93,375 (2480–420,500) ng/ml and the “median drug concentration (min-max), Rectal fluids” value ([1]; 1 ml gel rectally, 4 h) was 31,000 (545–873,500) ng/ml. For the same molecule, the “median drug concentration (min-max), Rectal tissues” value ([1]; 1 ml gel rectally, 4 h) was 9087 (BLLOQ^2-15,150) ng/g, the “median drug concentration (min-max), Rectal fluids” value ([1]; 1 ml gel rectally, 24 h) was 2975 (815–22,900) ng/ml and the “median drug concentration (min-max), Rectal tissues” value ([1]; 1 ml gel rectally, 24 h) was 127 ^* ng/g. For the same molecule, the “median drug concentration (min-max), Rectal fluids” value ([1]; 4 ml gel rectally, 2 h) was 106,500 (54,600–769,000) ng/ml, the “median drug concentration (min-max), Rectal fluids” value ([1]; 4 ml gel rectally, 4 h) was 53,775 (9570–930,500) ng/ml and the “median drug concentration (min-max), Rectal tissues” value ([1]; 4 ml gel rectally, 4 h) was 1277 (BLLOQ-51,304) ng/g. For the same molecule, the “median drug concentration (min-max), Rectal fluids” value ([1]; 4 ml gel rectally, 24 h) was 7065 (608–43,750) ng/ml, the “median drug concentration (min-max), Rectal tissues” value ([1]; 4 ml gel rectally, 24 h) was 566 (BLLOQ-2228) ng/g and the “levels in blood plasma” value ([1]; rectal application) was under 10 ng/mL. The “rectal tissue samples with detectable concentrations” value ([1]; rectal application, both gel volumes (1 and 4 ml)) was 10^2–10^3 ng/g, the “concentrations sampled in rectal tissues” value [1, 5] was 10^1–10^3 ng/g and the “levels in rectal tissue biopsies” value [2] was “below LLOQ”. The plasma concentrations [2] was under 10 ng/mL and the “release from the gel into a liquid sink (Franz Cell)” value [3] was 53.93 μg/cm ^3h.

For `C[C@H](Cn1cnc2c(N)ncnc21)OCP(=O)(O)O` [TFV, tenofovir], the “median drug concentration (min—max), Vaginal fluids, Proximal” value ([4]; 0.5 ml gel vaginally, 2 h, N = 6) was 158,146 (BLLOQ^2-3,025,157) ng/ml, the concentration at 2 h ([4]; rectal fluid, 0.5 ml) was 80 ng/mL and the concentration at 4 h ([4]; rectal fluid, 0.5 ml) was 0.069 µg/mL. The concentration at 24 h ([4]; rectal fluid, 0.5 ml) was 53 ng/mL, the concentration at 2 h ([4]; rectal fluids, 1.5 ml gel) was 138 ng/mL and the concentration at 4 h ([4]; rectal fluids, 1.5 ml gel) was 0.156 µg/mL. The concentration at 24 h ([4]; rectal fluids, 1.5 ml gel) was 127 ng/mL, the concentration at 2 h ([4]; vaginal fluid, distal, 0.5 ml) was 232000 ng/mL and the concentration at 4 h ([4]; vaginal fluid, distal, 0.5 ml) was 132 µg/mL. For the same molecule, the concentration at 24 h ([4]; vaginal fluid, distal, 0.5 ml) was 18700 ng/mL, the concentration at 2 h ([4]; vaginal fluid, distal, 1.5 ml) was 37200 ng/mL and the concentration at 4 h [4, 6] was 153 µg/mL. It also gave a concentration at 24 h [4, 6] of 57000 ng/mL, a concentration at 4 h [4, 7] of 124 µg/mL and a concentration at 24 h [4, 7] of 48900 ng/mL. It also gave a concentration at 2 h ([4]; vaginal fluid, proximal, 1.5 ml) of 30400 ng/mL, a concentration at 4 h [4, 8] of 54.3 µg/mL and a concentration at 24 h [4, 8] of 18000 ng/mL. It also gave a concentration at 4 h ([4]; vaginal tissue, distal, 0.5 ml) of 13400 ng/g, a concentration at 24 h ([4]; vaginal tissue, distal, 0.5 ml) of 5910 ng/g and a concentration at 4 h [4, 9] of 19200 ng/g. For the same molecule, the concentration at 24 h [4, 9] was 5380 ng/g, the concentration at 4 h ([4]; vaginal tissue, medial, 0.5 ml) was 8860 ng/g and the concentration at 24 h ([4]; vaginal tissue, medial, 0.5 ml) was 3550 ng/g. It also gave a concentration at 4 h [4, 10] of 10200 ng/g, a concentration at 24 h [4, 10] of 12200 ng/g and a concentration at 4 h [4, 11] of 4490 ng/g. For the same molecule, the concentration at 24 h [4, 11] was 16900 ng/g, the concentration at 4 h ([4]; vaginal tissue, proximal, 1.5 ml gel) was 35100 ng/g and the “median concentrations in rectal fluids” value ([4]; vaginal application of either volume (0.5 or 1.5 ml), over 24 h) was at most 200 ng/mL. For the same molecule, the “concentrations in rectal biopsy tissues” value [4, 12] was under 1 ng/sample, the plasma concentrations [4, 12] was under 10 ng/mL and the “median drug concentration (min-max), Rectal tissues” value ([1]; 1 ml gel rectally, 24 h) was 659 (BLLOQ-3586) ng/g. For the same molecule, the “median drug concentration (min-max), Rectal tissues” value ([1]; 4 ml gel rectally, 4 h) was 393 (BLLOQ-11,464) ng/g, the concentration at 2 h ([1]; rectal fluid, 1 ml) was 3230 ng/mL and the concentration at 4 h ([1]; rectal fluid, 1 ml) was 705 ng/mL. It also gave a concentration at 24 h ([1]; rectal fluid, 1 ml) of 132 ng/mL, a concentration at 2 h ([1]; rectal fluid, 4 ml) of 5060 ng/mL and a concentration at 4 h ([1]; rectal fluid, 4 ml) of 864 ng/mL. For the same molecule, the concentration at 24 h ([1]; rectal fluid, 4 ml) was 277 ng/mL, the concentration at 4 h ([1]; rectal tissue, 1 ml) was 811 ng/g and the concentration at 24 h ([1]; rectal tissue, 1 ml) was 659 ng/g. The concentration at 4 h ([1]; rectal tissue, 4 ml) was 393 ng/g, the concentration at 24 h ([1]; rectal tissue, 4 ml) was 1410 ng/g and the concentration at 2 h ([1]; pigtailed, rectal fluid, 1 ml) was 3230 ng/mL. For the same molecule, the concentration at 4 h ([1]; pigtailed, rectal fluid, 1 ml) was 705 ng/mL, the concentration at 24 h ([1]; pigtailed, rectal fluid, 1 ml) was 132 ng/mL and the concentration at 2 h ([1]; pigtailed, rectal fluid, 4 ml) was 5060 ng/mL. The concentration at 4 h ([1]; pigtailed, rectal fluid, 4 ml) was 864 ng/mL, the concentration at 24 h ([1]; pigtailed, rectal fluid, 4 ml) was 277 ng/mL and the concentration at 4 h ([1]; pigtailed, rectal tissue, 1 ml) was 811 ng/g. The concentration at 24 h ([1]; pigtailed, rectal tissue, 4 ml) was 1410 ng/g, the “levels in blood plasma” value ([1]; rectal application) was under 10 ng/mL and the “concentrations sampled in rectal tissues” value [1, 5] was 10^1–10^3 ng/g. The “median concentrations in rectal fluids” value [1, 5] was 10^2–10^3 ng/ml and the “release from the gel into a liquid sink (Franz Cell)” value [3] was 82.51 μg/cm ^3h.

For `C[C@@H](Cn1cnc2c(N)ncnc21)OCP(=O)(O)OP(=O)(O)OP(=O)(O)O` [TFV-DP, TFV-diphosphate], the “median drug concentration (min-max), Rectal tissues” value ([1]; 1 ml gel rectally, 4 h) was 176 ng/g and 176 (BLLOQ-207) ng/g, the “median drug concentration (min-max), Rectal tissues” value ([1]; 1 ml gel rectally, 24 h) was 70 ng/g and 70 (BLLOQ-128) ng/g and the “median drug concentration (min-max), Rectal tissues” value ([1]; 4 ml gel rectally, 4 h) was 47 ng/g and 47 (BLLOQ-480) ng/g. For the same molecule, the “median drug concentration (min-max), Rectal tissues” value ([1]; 4 ml gel rectally, 24 h) was 81 ng/g and 81 (BLLOQ-131) ng/g.
